SMILES strings stand for the structures.

For this experiment, the target named is T1, Pig brain tubulin (Sus scrofa, UniProt P02550+P02554).
T1 construct: Pig brain tubulin was prepared by two cycles of assembly and disassembly; from tissue; host or cells: pig brain
Kind of experiment: Microtubule assembly and disassembly assay. The experiment is classed as biochemical. The settings on record: 0.5 mg/ml tubulin, 1 mM GTP, turbidity at 340 nm, reassembly after CaCl2 (5 mM). Here is the method:
Microtubule assembly and disassembly assay.
Pig brain tubulin was prepared by two cycles of assembly and disassembly and it was stored in liquid nitrogen in Microtubule Assembly Buffer (MAB: 0.1 M MES, 2.5 mM EGTA, 0.5 mM MgSO4, 0.1 mM EDTA, 0.1 mM DTT pH 6.4). Assembly was monitored by the method of Gaskin et al. (Gaskin F, Cantor C R, Shelanski M L, 1974,: Turbidimetric studies of the in vitro assembly and disassembly of porcine neurotubules. J. Mol. Biol. 89: 737-758). The cuvette (1 cm path) containing 0.5 mg/ml tubulin and 1 mM GTP was shifted to 37° C. and continuous turbidity measurements were made at 340 nm on a spectrophotometer equipped with an automatic recorder and a thermostatically regulated sample chamber. After 30 min CaCl2 (5 mM) was added and disassembly was monitored for 10 min as decreased turbidity. Scalar doses of test compounds were monitored at regular intervals of 15 min.
(ED90) was calculated on this curve.

T1 sequence (P02550 whole entry): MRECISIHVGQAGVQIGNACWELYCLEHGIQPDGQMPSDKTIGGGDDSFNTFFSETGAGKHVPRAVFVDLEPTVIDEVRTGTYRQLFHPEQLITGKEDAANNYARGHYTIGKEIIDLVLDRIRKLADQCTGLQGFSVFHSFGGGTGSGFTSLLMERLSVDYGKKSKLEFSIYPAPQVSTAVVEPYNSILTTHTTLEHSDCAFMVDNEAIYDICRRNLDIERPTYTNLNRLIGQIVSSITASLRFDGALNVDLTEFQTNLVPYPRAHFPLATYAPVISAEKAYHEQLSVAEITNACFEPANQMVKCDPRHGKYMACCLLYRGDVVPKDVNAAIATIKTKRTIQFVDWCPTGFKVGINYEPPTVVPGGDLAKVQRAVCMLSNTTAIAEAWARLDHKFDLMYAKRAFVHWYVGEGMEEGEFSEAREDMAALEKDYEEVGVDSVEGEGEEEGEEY
T1 sequence (P02554 whole entry): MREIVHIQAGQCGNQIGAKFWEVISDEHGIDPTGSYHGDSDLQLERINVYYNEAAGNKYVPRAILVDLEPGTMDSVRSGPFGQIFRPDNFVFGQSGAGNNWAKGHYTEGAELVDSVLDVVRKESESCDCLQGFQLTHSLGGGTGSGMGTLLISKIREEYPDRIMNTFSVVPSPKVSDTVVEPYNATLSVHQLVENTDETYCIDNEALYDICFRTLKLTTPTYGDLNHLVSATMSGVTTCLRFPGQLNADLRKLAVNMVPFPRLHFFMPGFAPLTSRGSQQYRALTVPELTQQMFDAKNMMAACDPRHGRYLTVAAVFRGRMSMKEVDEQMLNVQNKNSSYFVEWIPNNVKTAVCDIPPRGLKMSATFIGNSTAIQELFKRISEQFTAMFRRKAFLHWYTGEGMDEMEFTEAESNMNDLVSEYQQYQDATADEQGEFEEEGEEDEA

With `CC(=O)OC1C/C=C\CC(OC(=O)/C=C/c2cn(C)cn2)Cc2ccccc2C1` (stereo not shown) [I^v a, 11-(Acetyloxy)-5,6,7,10,11,12-hexahydrobenzo[a][10]annulen-6-yl (2E)-3-(1-methyl-1H-imidazol-4-yl)prop-2-enoate], the “ED90 (dose effecting tubulin assembly by 90% at 37° C.)” value came to 10 µM.

For the origin of these results see patent US20050288238A1, “Benzocyclodecane derivatives with antitumor activity” (Pfizer Inc, priority 2004, published 2005).
